Data on two compounds can be found in US20240165077A1, “COMPOSITIONS AND METHODS FOR TREATING NEUROLOGIC DISEASES” (Cognition Therapeutics, Inc., priority 2021, published 2024).

Structures are written as SMILES. Like-named read-outs stand apart in the source and are kept apart here.

The test system of experiment [1] is α-synO-induced vesicle trafficking deficits. Put plainly: Vesicle trafficking in neuronal cultures treated with α-synuclein oligomers. Particulars: α-synOs 1.0 μM final concentration; for Emax / EC50: Rattus norvegicus; for Emax: FIG. 1F/1G, read-out: Emax, amelioration of α-synO vesicle trafficking deficit; for EC50: read-out: EC50, amelioration of α-synO vesicle trafficking deficit. The experiment is classed as cell-based, Rat. As for the experimental part:
FIG. 1F is a graphical representation of vesicular trafficking in untreated control cultures, cultures treated with α-synuclein oligomers (α-SynO) for 24 hours, or cultures treated with α-synuclein oligomers (α-SynO) and Compound B
FIG. 1G is a graphical representation of vesicular trafficking in untreated control cultures, cultures treated with α-synuclein oligomers (α-SynO) for 24 hours, or cultures treated with α-synuclein oligomers (α-SynO) and Compound A
(§1) Rat neuronal cultures were treated with vehicle (an a seeding control (7.1 nM) without α-synuclein oligomers (α-synOs)) or synthetic α-synOs for 24 hours. Cultures were immunostained for the neurite marker microtubule associated protein 2 (MAP2; green) and for α-synOs using an alpha-synuclein, oligomer-specific antibody (ASYO5 antibody, Agrisera; red).
Untreated vehicle control cultures without any α-SynO addition lack α-synO immunoreactivity (FIG. 1A). […] FIGS. 1D, 1E, 1F, 1G: * p<0.05, **p<0.01, […], ****p<0.001, one-way ANOVA for drug concentration vs control with Dunnett's post-test.

In experiment [2] the test system is α-synuclein oligomers (α-synO) binding to neuronal synapses. Put plainly: Displacement of alpha-synuclein oligomers: α-synO binding to neuronal synapses (ASYO5 immunostaining). The experiment is classed as cell-based, Rat. Particulars: 24 hours; for α-synO binding to neuronal synapses: synthetic α-synO, FIG. 1D/1E. As for the experimental part: FIG. 1A is a representative image of a neuron culture with a seeding control (7.1 nM) treated with a vehicle for 24 hours. Cultures were immunostained for the neurite marker microtubule associated protein 2 (MAP2; green) and for α-synuclein oligomers using an alpha-synuclein, oligomer-specific antibody (ASYO5 antibody, Agrisera; red). No α-synOs are present in the vehicle treated cultures.
FIG. 1B is a representative image of a neuron culture treated with synthetic α-synuclein oligomers (1 μM) for 24 hours and immunostained for the neurite marker microtubule associated protein 2 (MAP2; green) and for α-synuclein oligomers using an alpha-synuclein, oligomer-specific antibody (ASYO5 antibody, Agrisera; red).
FIG. 1C is a representative image of a neuron culture treated with synthetic α-synuclein oligomers (1 μM) and Compound A:
(10 μM) for 24 hours and immunostained for the neurite marker microtubule associated protein 2 (MAP2; green) and for α-synuclein oligomers using an alpha-synuclein, oligomer-specific antibody (ASYO5 antibody, Agrisera; red).
FIG. 1D is a graphical representation of binding affinity of α-synuclein oligomers (α-SynO) to neuronal synapses after treatment with vehicle (α-SynO) or treatment with Compound B
FIG. 1E is a graphical representation of binding affinity of α-synuclein oligomers (α-SynO) to neuronal synapses after treatment with vehicle (α-SynO) or treatment with Compound A
as §1

A further experiment concerns α-synuclein. Put plainly: Animal models of Parkinson's disease (AAV1/2 A53T-α-synuclein overexpression; intrastriatal α-synuclein preformed fibrils). The experiment is classed as in vivo, rat. The settings on record: both models of Parkinson's disease. The text has this:
Examples include models of overexpression of α-synuclein or models that mimic the propagation of α-synuclein throughout the brain. One such overexpression model is the rat AAV1/2 A53T-α-synuclein model (Koprich, J. B., Johnston, T. H., Huot, P., Reyes, M. G., Espinosa, M., Brotchie, J. M., “Progressive neurodegeneration or endogenous compensation in an animal model of Parkinson's disease produced by decreasing doses of alpha-synuclein,” PLoS One, 6:1-9 (2011), which is hereby incorporated herein by reference in its entirety), where induction of α-synuclein overexpression is accompanied by loss of nigral dopaminergic cells, lower dopamine transporter levels, lower dopamine levels and motor deficits. Another example uses intrastriatal injection of preformed fibrils of α-synuclein to model propagation of Parkinson's pathology throughout the brain (Duffy, M. F., Collier, T. J., Patterson, J. R., Kemp, C. J., Fischer D. L., Stoll, A. C., Sortwell, C. E., “Quality over quantity: Advantages of using alpha-synuclein preformed fibrils triggered synucleinopathy to model idiopathic Parkinson's disease,” Front Neurosci, 12:1-10 (2018) and Patterson, J. R., Duffy, M. F., Kemp, C. J., Howe, J. W., Collier, T. J., Stoll, A. C., Miller, K. M., Patel, P., Levine, N., Moore, D. J., Luk, K. C., Fleming, S. M., Kanaan, N. M, Paumier, K. L., El Agnaf, O. M. A., Sortwell, C. […]

On to `CC(C)(C)Oc1cc(CCC(C)(C)N2Cc3ccc(S(C)(=O)=O)cc3C2)ccc1O` [Compound A], for which, in experiment [1], the Emax amounted to 87% and the “rescue of α-synO-induced trafficking deficits” value is “rescue α-synO-induced trafficking deficits in a concentration-dependent manner”. Also, the EC50 in experiment [1] (FIG. 1G) came out at 650 nM. Further, the “punctate binding of α-synOs along neurites” value in experiment [2] (1 μM α-synO, compound 10 μM, FIG. 1B/1C) was “punctate binding of α-synOs along neurites in the absence (FIG. 1B) but not presence”. The “α-synO binding to neuronal synapses” value in experiment [2] is “block α-synO binding to neuronal synapses in a concentration-dependent manner”. The “deficits characteristic of Parkinson's disease and their propagation throughout the brain” value in the experiment with α-synuclein is “reduces some or all deficits that are characteristic of Parkinson's disease”.

`CC(C)=C[C@@H](CC(C)(C)c1ccc(C(F)(F)F)cc1)N1CCC(C2CCOCC2)CC1` [Compound B]: in experiment [1], the Emax was 92% and the “rescue of α-synO-induced trafficking deficits” value is “rescue α-synO-induced trafficking deficits in a concentration-dependent manner”. In experiment [1] (FIG. 1F), the EC50 was determined as 310 nM. In experiment [2], the “α-synO binding to neuronal synapses” value is recorded as “block α-synO binding to neuronal synapses in a concentration-dependent manner”. Further, in the experiment with α-synuclein, the “deficits characteristic of Parkinson's disease and their propagation throughout the brain” value was “reduces some or all deficits that are characteristic of Parkinson's disease”.
